In paper PMC9238401, “Peptide Conjugates Derived from flg15, Pep13, and PIP1 That Are Active against Plant-Pathogenic Bacteria and Trigger Plant Defense Responses” (Applied and Environmental Microbiology, 2022):
Non-standard residues stand in square brackets, D forms with d. Residues, ends and D or L forms follow the SMILES beside them. No end group written: not given here.

How the values were obtained:
horse erythrocytes = conditions: TRIS buffer pH 7.2, 1 h, 37°C, absorbance 540 nm, relative to melittin 100 μM, ± confidence interval (α = 0.05)
Procedure, shortened: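 Hemolysis measured as absorbance at 540 nm of supernatant, expressed as percent of melittin-lysed control after buffer subtraction. Compound solutions (750, 500, 300, 100 μM, Tris-buffered saline pH 7.2) were combined 1:1 with washed horse red cells for 1 h, 37°C, shaking.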

tobacco leaves = assay: Effect of peptide infiltration on tobacco leaves (phytotoxicity); assay type: in vivo
Procedure, shortened: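 Phytotoxicity was scored as necrotic lesion diameter 48 h post-infiltration. Each peptide was infiltrated at 50, 150 or 250 μM into fully expanded tobacco leaf mesophyll, on ≥3 leaves from different plants, alongside water and same-molar melittin controls.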

[1] = HPLC retention time as indicator of relative hydrophobicity; assay type: physicochemical; conditions: chromatographic, Kromasil 100 C18 (4.6 mm × 40 mm, 3 μm), linear gradient 2 to 100% B over 12 min, 1 mL/min; A 0.1% aqueous TFA, B 0.1% TFA in CH3CN; used as indicator of relative hydrophobicity
Description: The parameters related to the structure of the peptide conjugates (sequence, charge, hydrophobic ratio [HR], and HPLC retention time), as well as their physicochemical properties (grand average hydropathicity [GRAVY] and hydrophobic moment [<μH>]) obtained from the online programs ProtParam (Expasy server) and HeliQuest are included in Table 1.
Peptides were analyzed under standard analytical HPLC conditions. Method A: peptides were analyzed with a Dionex liquid chromatography instrument composed of a UV/Vis Dionex UVD170U detector, a P680 Dionex pump, an ASI-100 Dionex automatic injector, and Chromeleon 6.60 software. Detection was performed at a wavelength of 220 nm. Solvent A was 0.1% aqueous trifluoroacetic acid (TFA), and solvent B was 0.1% TFA in CH3CN. Analyses were carried out with a Kromasil 100 C18 (4.6 mm × 40 mm, 3 μm) column with a linear gradient of 2 to 100% B over 7 min at a flow rate of 1 mL/min. Method B: peptides were analyzed with a 1260 Infinity II liquid chromatography instrument (Agilent Technologies) composed of a diode array detector HS, a quaternary pump VL, a 1260 vial sampler, and OpenLab CDS ChemStation software. Analyses were carried out with a Kromasil 100 C18 (4.6 mm × 40 mm, 3 μm) column with a linear gradient of 2 to 100% B over 12 min at a flow rate of 1 mL/min.

[2] = test system: Pseudomonas syringae pv. syringae EPS94; assay: In vitro growth inhibition (MIC); assay type: cell-based; conditions: TSB, 25°C, 48 h, OD 600 nm (Bioscreen C), three replicates, experiment repeated twice; MIC given as range
Procedure, shortened: (§1)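 Strains were grown 24 h at 25°C on agar, then suspended in sterile water at 10^8 CFU mL^−1 and mixed with peptide dilutions in Trypticase soy broth. Plates were incubated at 25°C with shaking and OD600 read hourly for 48 h. MIC is the lowest concentration with no growth at 48 h.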

[3] = test system: Erwinia amylovora PMV6076; assay: In vitro growth inhibition (MIC); assay type: cell-based; conditions: TSB, 25°C, 48 h, OD 600 nm (Bioscreen C), three replicates, experiment repeated twice; MIC = lowest concentration with no growth, given as range
Procedure, shortened: as §1

[4] = test system: Pseudomonas syringae pv. actinidiae Psa3700.1.1; assay: In vitro growth inhibition (MIC); assay type: cell-based; conditions: TSB, 25°C, 48 h, OD 600 nm (Bioscreen C), three replicates, experiment repeated twice; MIC given as range
Procedure, shortened: as §1

[5] = test system: Xanthomonas arboricola pv. pruni CFBP5563; assay: In vitro growth inhibition (MIC); assay type: cell-based; conditions: TSB, 25°C, 48 h, OD 600 nm (Bioscreen C), three replicates, experiment repeated twice; MIC given as range
Procedure, shortened: as §1

[6] = test system: Xanthomonas fragariae Xf349-9A; assay: In vitro growth inhibition (MIC); assay type: cell-based; conditions: TSB, 25°C, 48 h, OD 600 nm (Bioscreen C), three replicates, experiment repeated twice; MIC given as range
Procedure, shortened: as §1

[7] = test system: Xanthomonas axonopodis pv. vesicatoria 2133-2; conditions: TSB, 25°C, 48 h, OD 600 nm (Bioscreen C), three replicates, experiment repeated twice; MIC given as range
Procedure, shortened: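 Bacteria grown 24 h (48 h for Xanthomonas axonopodis, X. fragariae) at 25°C, suspended at 10^8 CFU mL^−1, mixed with peptide dilutions in TSB.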

[8] = test system: plant-pathogenic bacteria (E. amylovora, X. arboricola pv. pruni, X. fragariae, X. axonopodis pv. vesicatoria, P. syringae pv. actinidiae, P. syringae pv. …); conditions: 24 h
[9] = 100 μL infiltrated into mesophyll, lesion diameter 48 h after infiltration, at least three leaves, ± confidence interval (α = 0.05)

Row | Compound | Percent hemolysis at 50 μM (horse erythrocytes) | Percent hemolysis at 150 μM (horse erythrocytes) | Percent hemolysis at 250 μM (horse erythrocytes) | Percent hemolysis at 375 μM (horse erythrocytes) | Size of the lesions in infiltrated tobacco leaves at 50 μM (tobacco leaves; in vivo) | Size of the lesions in infiltrated tobacco leaves at 150 μM (tobacco leaves; in vivo) | Size of the lesions in infiltrated tobacco leaves at 250 μM (tobacco leaves; in vivo) | tR (min), HPLC retention time (method B) [1] | MIC, Pss [2] | MIC, Ea [3] | MIC, Psa [4] | MIC, Xap [5] | MIC, Xf [6] | MIC, Xav [7] | MIC against all the bacteria tested (span over the six pathogens) [8] | Size of the lesions in infiltrated tobacco leaves at 50 μM (tobacco leaves; [9]) | Size of the lesions in infiltrated tobacco leaves at 150 μM (tobacco leaves; [9]) | Size of the lesions in infiltrated tobacco leaves at 250 μM (tobacco leaves; [9])
1 | CC[C@H](C)[C@H](NC(=O)[C@H](CCCCN)NC(=O)[C@H](CCCCN)NC(=O)[C@@H](Cc1ccccc1)NC(=O)[C@H](CC(C)C)NC(=O)[C@H](CCCCN)NC(=O)[C@@H](N)CCCCN)C(=O)N[C@@H](CC(C)C)C(=O)N[C@@H](CCCCN)C(=O)N[C@@H](Cc1ccc(O)cc1)C(=O)N[C@@H](CC(C)C)C(=O)N[C@H](C(=O)N[C@@H](Cc1c[nH]c2ccccc12)C(=O)N[C@@H](CC(N)=O)C(=O)N[C@@H](CCC(N)=O)C(=O)N1CCC[C@H]1C(=O)N[C@H](C(=O)N[C@@H](CCCNC(=N)N)C(=O)NCC(=O)N[C@@H](Cc1ccccc1)C(=O)N[C@@H](CCCCN)C(=O)N[C@H](C(=O)N[C@@H](Cc1ccc(O)cc1)C(=O)N[C@@H](CCC(=O)O)C(=O)O)C(C)C)C(C)C)C(C)C [BP143-Pep13] (H-KKL[dF]KKILKYLVWNQPVRGFKVYE-OH) | 5 ± 1.9% | 9 ± 0.4% | 16 ± 1.9% | 29 ± 0.9% | 0.10 ± 0.12 cm | 0.44 ± 0.16 cm | 0.60 ± 0.25 cm | 5.62 min | 1.6 to 3.1 µM | 1.6 to 3.1 µM | 0.8 to 1.6 µM | 1.6 to 3.1 µM | 6.2 to 12.5 µM | 1.6 to 3.1 µM | 0.8 to 12.5 µM |  |  | 
2 | CC[C@H](C)[C@H](NC(=O)[C@H](CCCCN)NC(=O)[C@H](CCCCN)NC(=O)[C@@H](Cc1ccccc1)NC(=O)[C@H](CC(C)C)NC(=O)[C@H](CCCCN)NC(=O)[C@H](CCCCN)NC(=O)[C@H](CCC(=O)O)NC(=O)[C@H](Cc1ccc(O)cc1)NC(=O)[C@@H](NC(=O)[C@H](CCCCN)NC(=O)[C@H](Cc1ccccc1)NC(=O)CNC(=O)[C@H](CCCNC(=N)N)NC(=O)[C@@H](NC(=O)[C@@H]1CCCN1C(=O)[C@H](CCC(N)=O)NC(=O)[C@H](CC(N)=O)NC(=O)[C@H](Cc1c[nH]c2ccccc12)NC(=O)[C@@H](N)C(C)C)C(C)C)C(C)C)C(=O)N[C@@H](CC(C)C)C(=O)N[C@@H](CCCCN)C(=O)N[C@@H](Cc1ccc(O)cc1)C(=O)N[C@@H](CC(C)C)C(N)=O [Pep13-BP143] (H-VWNQPVRGFKVYEKKL[dF]KKILKYL-NH2) | 5 ± 0.5% | 8 ± 0.3% | 10 ± 0.6% | 17 ± 0.4% | 0.16 ± 0.15 cm | 0.52 ± 0.14 cm | 0.62 ± 0.13 cm | 5.97 min | 6.2 to 12.5 µM | 6.2 to 12.5 µM | 3.1 to 6.2 µM | 0.8 to 1.6 µM | 3.1 to 6.2 µM | 0.8 to 1.6 µM | 0.8 to 12.5 µM |  |  | 
3 | H-RINSAKDDAAGLQIAKKLFKKILKKL-NH2 [flg15-BP16] | 2 ± 0.1% | 3 ± 0.2% | 4 ± 0.9% | 5 ± 0.3% |  |  |  | 5.89 min | 6.2 to 12.5 µM | 3.1 to 6.2 µM | 3.1 to 6.2 µM | 3.1 to 6.2 µM | 1.6 to 3.1 µM | 1.6 to 3.1 µM |  | 0.20 ± 0.12 cm | 0.49 ± 0.13 cm | 0.42 ± 0.11 cm
4 | H-YGIHTHKKVVFWVKFK-NH2 [PIP1-KSLW] | 7 ± 0.8% | 7 ± 1.1% | 6 ± 0.4% | 6 ± 0.4% | 0 ± 0 cm | 0.47 ± 0.24 cm | 0.70 ± 0.11 cm | 4.81 min | 6.2 to 12.5 µM | 12.5 to 25 µM | 6.2 to 12.5 µM | 3.1 to 6.2 µM | 6.2 to 12.5 µM | 3.1 to 6.2 µM |  |  |  | 
5 | KKLFKKILKKL-RINSAKDDAAGLQIA-OH [BP16-flg15] | 0 ± 0.3% | 1 ± 0.1% | 0 ± 0.6% | 1 ± 0.5% |  |  |  | 4.59 min | 12.5 to 25 µM | > 50 µM | 12.5 to 25 µM | 25 to 50 µM | 12.5 to 25 µM | 3.1 to 6.2 µM |  | 0 ± 0 cm | 0.31 ± 0.10 cm | 0.30 ± 0.09 cm
6 | KKLFKKILKKLVWNQPVRGFKVYE [BP16-Pep13] | 1 ± 0.4% | 1 ± 0.3% | 1 ± 0.5% | 2 ± 0.4% | 0.23 ± 0.13 cm | 0.45 ± 0.12 cm | 1.02 ± 0.32 cm | 5.12 min | 1.6 to 3.1 µM | 6.2 to 12.5 µM | 1.6 to 3.1 µM | 0.8 to 1.6 µM | 1.6 to 3.1 µM | 1.6 to 3.1 µM | 0.8 to 12.5 µM |  |  | 
7 | KKLFKKILKYL-RINSAKDDAAGLQIA-OH [BP100-flg15] | 1 ± 0.9% | 1 ± 0.8% | 3 ± 0.0% | 6 ± 1.6% |  |  |  | 4.96 min | 3.1 to 6.2 µM | 6.2 to 12.5 µM | 1.6 to 3.1 µM | 1.6 to 3.1 µM | 6.2 to 12.5 µM | 3.1 to 6.2 µM |  | 0.10 ± 0.12 cm | 0.28 ± 0.14 cm | 0.36 ± 0.13 cm
8 | KKVVFWVKFK-RINSAKDDAAGLQIA-OH [KSLW-flg15] | 4 ± 1.9% | 7 ± 3.4% | 8 ± 0.9% | 8 ± 2.7% |  |  |  | 4.75 min | > 50 µM | > 50 µM | > 50 µM | > 50 µM | 12.5 to 25 µM | 6.2 to 12.5 µM |  | 0 ± 0 cm | 0.13 ± 0.09 cm | 0.26 ± 0.05 cm
